According to publication PMC5850045 (ERJ Open Research, 2018):
Like-named read-outs stand apart in the source and are kept apart here.

How the values were obtained:
α1A-adrenergic receptor [1] = biological target: T1, α1A-adrenergic receptor (Homo sapiens, UniProt P35348); assay: Primary radioligand binding screen; details: 10 µM, n = 4
T1 sequence (P35348 1-466): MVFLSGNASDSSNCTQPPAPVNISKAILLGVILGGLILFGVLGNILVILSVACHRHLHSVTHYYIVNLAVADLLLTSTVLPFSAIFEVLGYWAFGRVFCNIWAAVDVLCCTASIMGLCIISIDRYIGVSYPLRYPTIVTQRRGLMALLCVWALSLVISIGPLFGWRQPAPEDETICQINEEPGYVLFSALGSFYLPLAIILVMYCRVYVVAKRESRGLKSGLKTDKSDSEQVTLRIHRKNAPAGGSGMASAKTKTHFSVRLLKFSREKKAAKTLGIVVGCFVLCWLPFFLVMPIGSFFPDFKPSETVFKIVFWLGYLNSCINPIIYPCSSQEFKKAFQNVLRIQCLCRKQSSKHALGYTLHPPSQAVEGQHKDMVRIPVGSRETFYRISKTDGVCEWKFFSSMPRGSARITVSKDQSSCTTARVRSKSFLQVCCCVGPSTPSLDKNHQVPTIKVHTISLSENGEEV

α1A-adrenergic receptor [2] = biological target: T1, α1A-adrenergic receptor; assay: Secondary radioligand binding assay
serotonin transporter [3] = biological target: T2, serotonin transporter (Homo sapiens, UniProt P31645); assay: Primary radioligand binding screen; details: 10 µM, n = 4
5-HT2C receptor [4] = biological target: T3, 5-HT2C receptor (Homo sapiens, UniProt P28335); assay: Primary radioligand binding screen; details: 10 µM, n = 4
T3 sequence (P28335 33-458): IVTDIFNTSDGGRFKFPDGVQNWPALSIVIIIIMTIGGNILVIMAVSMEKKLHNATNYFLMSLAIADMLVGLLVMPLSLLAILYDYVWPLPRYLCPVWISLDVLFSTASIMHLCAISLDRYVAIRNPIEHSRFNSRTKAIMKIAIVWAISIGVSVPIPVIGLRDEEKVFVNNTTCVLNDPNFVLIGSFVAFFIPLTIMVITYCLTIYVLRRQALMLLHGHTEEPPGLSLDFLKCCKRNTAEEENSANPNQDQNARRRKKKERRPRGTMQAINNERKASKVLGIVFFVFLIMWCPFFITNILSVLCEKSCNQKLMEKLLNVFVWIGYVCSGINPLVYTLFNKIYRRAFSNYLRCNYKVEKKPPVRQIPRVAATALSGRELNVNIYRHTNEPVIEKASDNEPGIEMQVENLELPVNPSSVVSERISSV

serotonin transporter [5] = biological target: T2, serotonin transporter; assay: Secondary radioligand binding assay; details: low-affinity binding
muscarinic M3 receptor = muscarinic M3 receptor (Homo sapiens, UniProt P20309); format: binding
rat colon = assay: Ex vivo rat colon force contraction experiment; details: for contractile response in the colon: colon pre-treated with β3 receptor selective antagonist SR59230A; for effects on colonic contractions: ex vivo rat colon preparation
5-HT2C receptor [6] = biological target: T3, 5-HT2C receptor; assay: Secondary radioligand binding assay
δ-opioid receptor [7] = biological target: T4, δ-opioid receptor (Homo sapiens, UniProt P41143); assay: Primary radioligand binding screen; details: 10 µM, n = 4
δ-opioid receptor [8] = biological target: T4, δ-opioid receptor; assay: Secondary radioligand binding assay
dopamine transporter = dopamine transporter (Homo sapiens, UniProt Q01959); assay: Primary radioligand binding screen; details: 10 µM, n = 4
β3-adrenergic receptor [9] = biological target: T5, β3-adrenergic receptor (Homo sapiens, UniProt P13945); assay: Secondary radioligand binding assay
β3-adrenergic receptor [10] = biological target: T5, β3-adrenergic receptor; assay: Primary radioligand binding screen; details: 10 µM, n = 4
α1D-adrenergic receptor = biological target: T6, α1D-adrenergic receptor (Homo sapiens, UniProt P25100); assay: Secondary radioligand binding assay
T6 sequence (P25100 1-572): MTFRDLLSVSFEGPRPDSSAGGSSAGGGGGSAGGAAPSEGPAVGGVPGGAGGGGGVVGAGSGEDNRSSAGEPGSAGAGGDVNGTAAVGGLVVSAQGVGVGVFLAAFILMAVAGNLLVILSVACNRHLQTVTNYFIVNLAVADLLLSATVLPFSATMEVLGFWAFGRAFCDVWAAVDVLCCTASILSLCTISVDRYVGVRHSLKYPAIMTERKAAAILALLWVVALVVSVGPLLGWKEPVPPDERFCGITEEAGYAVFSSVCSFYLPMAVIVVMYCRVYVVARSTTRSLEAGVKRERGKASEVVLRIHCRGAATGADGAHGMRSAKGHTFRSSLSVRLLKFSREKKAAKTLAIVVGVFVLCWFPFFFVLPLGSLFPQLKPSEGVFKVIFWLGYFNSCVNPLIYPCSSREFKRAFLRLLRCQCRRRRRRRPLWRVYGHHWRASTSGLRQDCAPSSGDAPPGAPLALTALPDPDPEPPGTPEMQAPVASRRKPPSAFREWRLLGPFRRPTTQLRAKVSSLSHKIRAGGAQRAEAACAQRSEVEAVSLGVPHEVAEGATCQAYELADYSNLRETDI

histamine H1 receptor = histamine H1 receptor (Homo sapiens, UniProt P35367); assay: Primary radioligand binding screen; details: 10 µM, n = 4
α1B-adrenergic receptor = biological target: T7, α1B-adrenergic receptor (Homo sapiens, UniProt P35368); assay: Secondary radioligand binding assay
T7 sequence (P35368 1-520): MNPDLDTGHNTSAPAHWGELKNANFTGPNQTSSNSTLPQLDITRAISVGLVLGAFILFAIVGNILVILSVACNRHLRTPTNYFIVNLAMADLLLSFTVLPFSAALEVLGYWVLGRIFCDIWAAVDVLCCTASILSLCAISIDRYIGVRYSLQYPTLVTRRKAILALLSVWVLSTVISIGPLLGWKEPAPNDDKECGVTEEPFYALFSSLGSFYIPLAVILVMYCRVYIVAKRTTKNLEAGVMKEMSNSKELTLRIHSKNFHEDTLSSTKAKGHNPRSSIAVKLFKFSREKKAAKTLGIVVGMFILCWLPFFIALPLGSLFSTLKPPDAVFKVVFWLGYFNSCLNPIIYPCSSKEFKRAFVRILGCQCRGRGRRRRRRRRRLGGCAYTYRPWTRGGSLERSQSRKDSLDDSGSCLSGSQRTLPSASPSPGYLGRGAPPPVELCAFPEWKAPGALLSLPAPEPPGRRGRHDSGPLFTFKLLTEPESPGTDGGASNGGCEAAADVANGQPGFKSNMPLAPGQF

T2 sequence (P31645 whole entry): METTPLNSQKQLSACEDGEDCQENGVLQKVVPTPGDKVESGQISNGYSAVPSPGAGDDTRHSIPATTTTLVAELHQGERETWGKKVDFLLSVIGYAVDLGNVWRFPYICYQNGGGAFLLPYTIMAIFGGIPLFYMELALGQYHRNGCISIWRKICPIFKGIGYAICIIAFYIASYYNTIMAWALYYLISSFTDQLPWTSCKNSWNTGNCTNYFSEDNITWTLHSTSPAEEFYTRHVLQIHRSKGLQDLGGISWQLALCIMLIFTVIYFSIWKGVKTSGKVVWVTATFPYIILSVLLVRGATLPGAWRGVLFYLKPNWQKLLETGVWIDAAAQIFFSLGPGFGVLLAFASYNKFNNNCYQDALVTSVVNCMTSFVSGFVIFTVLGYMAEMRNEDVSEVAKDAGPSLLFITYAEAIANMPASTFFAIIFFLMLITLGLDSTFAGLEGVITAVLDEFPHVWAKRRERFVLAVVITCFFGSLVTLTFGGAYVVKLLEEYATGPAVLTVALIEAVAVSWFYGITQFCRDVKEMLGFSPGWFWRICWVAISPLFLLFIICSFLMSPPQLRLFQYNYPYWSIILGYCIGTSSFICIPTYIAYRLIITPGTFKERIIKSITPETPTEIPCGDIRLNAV
T4 sequence (P41143 whole entry): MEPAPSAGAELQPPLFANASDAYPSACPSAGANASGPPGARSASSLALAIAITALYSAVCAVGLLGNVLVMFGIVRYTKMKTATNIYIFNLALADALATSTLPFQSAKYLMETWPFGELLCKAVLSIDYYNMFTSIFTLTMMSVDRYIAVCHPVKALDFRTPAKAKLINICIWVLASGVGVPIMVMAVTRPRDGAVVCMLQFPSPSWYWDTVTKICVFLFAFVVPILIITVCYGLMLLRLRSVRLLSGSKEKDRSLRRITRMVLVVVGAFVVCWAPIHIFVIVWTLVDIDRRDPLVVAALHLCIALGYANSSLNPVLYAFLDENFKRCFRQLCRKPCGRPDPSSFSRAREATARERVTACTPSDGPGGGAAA
Sequence of muscarinic M3 receptor (P20309 whole entry): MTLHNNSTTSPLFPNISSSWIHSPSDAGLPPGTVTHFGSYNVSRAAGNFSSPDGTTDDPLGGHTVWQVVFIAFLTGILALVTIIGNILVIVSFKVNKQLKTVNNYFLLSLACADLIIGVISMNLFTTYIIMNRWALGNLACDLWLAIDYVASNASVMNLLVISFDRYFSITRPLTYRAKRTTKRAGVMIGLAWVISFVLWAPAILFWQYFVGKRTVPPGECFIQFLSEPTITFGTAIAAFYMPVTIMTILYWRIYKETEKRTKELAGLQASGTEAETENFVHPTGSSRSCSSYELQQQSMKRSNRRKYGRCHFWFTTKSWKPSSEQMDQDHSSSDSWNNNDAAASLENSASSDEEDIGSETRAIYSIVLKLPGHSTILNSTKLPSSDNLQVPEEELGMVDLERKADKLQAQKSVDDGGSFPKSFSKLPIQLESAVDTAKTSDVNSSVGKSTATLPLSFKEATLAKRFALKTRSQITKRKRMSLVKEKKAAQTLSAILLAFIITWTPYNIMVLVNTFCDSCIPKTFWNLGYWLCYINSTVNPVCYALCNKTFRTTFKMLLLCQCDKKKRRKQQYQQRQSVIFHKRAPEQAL
Sequence of histamine H1 receptor (P35367 whole entry, species assumed): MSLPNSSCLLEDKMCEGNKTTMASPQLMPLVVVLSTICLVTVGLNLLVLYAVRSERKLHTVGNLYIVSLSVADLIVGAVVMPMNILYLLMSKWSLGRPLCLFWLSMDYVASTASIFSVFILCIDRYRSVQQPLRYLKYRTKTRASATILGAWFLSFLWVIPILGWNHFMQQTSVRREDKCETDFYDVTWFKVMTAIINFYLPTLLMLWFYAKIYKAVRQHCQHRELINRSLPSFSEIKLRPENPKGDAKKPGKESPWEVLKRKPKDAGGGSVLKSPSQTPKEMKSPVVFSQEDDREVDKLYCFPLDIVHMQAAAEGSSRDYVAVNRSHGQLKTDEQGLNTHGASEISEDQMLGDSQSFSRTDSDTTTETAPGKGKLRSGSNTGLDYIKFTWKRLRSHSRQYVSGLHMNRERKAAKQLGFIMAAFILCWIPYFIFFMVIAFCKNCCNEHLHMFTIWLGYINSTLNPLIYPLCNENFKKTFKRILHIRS
T5 sequence (P13945 whole entry, species assumed): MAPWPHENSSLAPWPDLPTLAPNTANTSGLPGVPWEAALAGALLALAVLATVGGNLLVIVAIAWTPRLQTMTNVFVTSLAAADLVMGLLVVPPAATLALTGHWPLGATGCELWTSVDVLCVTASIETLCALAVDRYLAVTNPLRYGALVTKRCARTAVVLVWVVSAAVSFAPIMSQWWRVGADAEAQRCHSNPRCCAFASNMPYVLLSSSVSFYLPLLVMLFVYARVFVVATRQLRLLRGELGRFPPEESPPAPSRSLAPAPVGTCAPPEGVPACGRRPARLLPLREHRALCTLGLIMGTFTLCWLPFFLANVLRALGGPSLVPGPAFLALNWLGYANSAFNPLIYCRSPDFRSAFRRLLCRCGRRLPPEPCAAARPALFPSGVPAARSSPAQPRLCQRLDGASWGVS
Sequence of dopamine transporter (Q01959 whole entry): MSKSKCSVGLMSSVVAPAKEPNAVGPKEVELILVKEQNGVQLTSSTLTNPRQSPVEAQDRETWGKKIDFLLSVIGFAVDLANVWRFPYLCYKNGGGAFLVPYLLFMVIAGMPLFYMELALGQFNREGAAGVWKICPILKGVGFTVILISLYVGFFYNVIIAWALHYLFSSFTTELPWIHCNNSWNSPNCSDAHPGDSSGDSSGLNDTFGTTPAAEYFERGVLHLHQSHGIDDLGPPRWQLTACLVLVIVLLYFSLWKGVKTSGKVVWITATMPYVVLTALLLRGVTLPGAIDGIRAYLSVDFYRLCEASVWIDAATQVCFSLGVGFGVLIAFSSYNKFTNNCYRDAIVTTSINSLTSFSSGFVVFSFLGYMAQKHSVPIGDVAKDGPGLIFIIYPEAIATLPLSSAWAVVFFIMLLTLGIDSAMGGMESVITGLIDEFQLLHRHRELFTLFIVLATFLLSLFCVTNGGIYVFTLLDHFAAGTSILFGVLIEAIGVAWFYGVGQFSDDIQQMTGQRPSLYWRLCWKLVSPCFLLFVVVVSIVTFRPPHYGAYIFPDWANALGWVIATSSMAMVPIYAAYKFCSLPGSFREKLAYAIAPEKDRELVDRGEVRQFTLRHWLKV

SMILES | % displacement (α1A-adrenergic receptor [1]) [%] | Ki (α1A-adrenergic receptor [2]; low-affinity binding) [µM] | % displacement (serotonin transporter [3]) [%] | % displacement (5-HT2C receptor [4]) [%] | Ki (serotonin transporter [5]) [µM] | contractile response in the colon (rat colon) | effects on colonic contractions (rat colon) | Ki (α1D-adrenergic receptor) [µM] | % displacement (histamine H1 receptor) [%] | also measured
CC(C)(C)c1cc(C(C)(C)CO)c(O)cc1NC(=O)c1c[nH]c2ccccc2c1=O [iva-M1, hydroxymethylivacaftor] | 79.9 | > 10 | 56.7 | 78.2 | > 10 |  |  |  |  | Ki (muscarinic M3 receptor): 1.83 µM; pKi (muscarinic M3 receptor): 5.70±0.10
CC(C)(C)c1cc(C(C)(C)C(=O)O)c(O)cc1NC(=O)c1c[nH]c2ccccc2c1=O [iva-M6, ivacaftorcarboxylate] | 92.3 | > 10 | 50.9 |  | > 10 | significant contractile response | no significant effects |  |  | 
CC(C)(C)c1cc(C(C)(C)C)c(NC(=O)c2c[nH]c3ccccc3c2=O)cc1O [ivacaftor] | 58.3 |  | 61.1 | 84.8 |  | significant contractile response | no significant effects |  |  | Ki (5-HT2C receptor [6]): 0.866 µM; % displacement (δ-opioid receptor [7]): 50.8%; Ki (α1A-adrenergic receptor [2]): > 10 µM; Ki (serotonin transporter [5]; Ki): > 10 µM; Ki (δ-opioid receptor [8]): 2.59 µM; % displacement (dopamine transporter): 55.2%; Ki (β3-adrenergic receptor [9]): 1.93 µM; % displacement (β3-adrenergic receptor [10]): 75.9%
Cc1ccc(NC(=O)C2(c3ccc4c(c3)OC(F)(F)O4)CC2)nc1-c1cccc(C(=O)O)c1 [lumacaftor] |  |  |  |  |  |  |  | 4.84 | 71.2 | Ki (α1B-adrenergic receptor): > 10 µM
CC(C)(CO)c1cc2cc(NC(=O)C3(c4ccc5c(c4)OC(F)(F)O5)CC3)c(F)cc2n1C[C@@H](O)CO [tezacaftor] |  |  |  |  |  |  |  | 5.45 | 53.3 | 
